Laboratory results published in US8440643B2, “Inhibitors of beta-lactamase” (MethylGene Inc., priority 2006, dated 2013).

Test system: Ps. aeruginosa, CL 5701
Experiment: Imipenem MIC against Ps. aeruginosa CL 5701
Format: cell-based
Conditions: Pseudomonas aeruginosa, CL5701, imipenem alone
Excerpt: The assay determines the concentration of a β-lactamase inhibitor required to reduce the MIC of a β-lactam antibiotic by one-half, one-quarter, one-eighth, one-sixteenth and one-thirty-second against strains of bacteria normally resistant to the antibiotic in question. This is accomplished by titrating the inhibitor (BLI=beta-lactamase inhibitor) in a serial dilution across a microtiter plate while at the same time titrating the antibiotic (AB) in a serial dilution down the microtiter plate and then inoculating the plate with the bacterial strain in question and allowing the bacteria to grow up overnight. Each well in this microplate checkerboard contains a different combination of concentrations of the inhibitor and the antibiotic allowing a full determination of any synergy between the two.
• 1. All wells in rows B-H of MIC 2000 microtiter plates are filled with 100 μL of MHBII+1% DMSO (dimethyl sulfoxide). • 2. All wells in row A of MIC 2000 microtiter plates are filled with 100 μL of 2×MHBII+2% DMSO. • 3. […] Plates are left at 37° C. for about 20 hours and scored for growth by eye. […]
Plates are scored for growth in each well. End points (MICs) where there is no growth in each row are determined and the concentrations of AB and the test BLI at each of these growth negative wells are then used to determine levels of synergy. […]

In the case of C[C@@H](O)[C@H]1C(=O)N2C(C(=O)O)=C(SCCN=CN)C[C@H]12 [Imipenem], the MIC is reported as 20 µg/mL.
